Target: T1, WT/R232 STING protein (Homo sapiens, UniProt Q86WV6, H232R)
T1 construct: host or cells: HEK293T
Assay: Luciferase reporter assay in HEK293T-hSTING-Luciferase cells, WT/R232
Format: cell-based
Conditions: 20 hr stimulation, read-out: R232 Activity (EC50 range)
How it was run: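 Clonal HEK293T cells stably expressing human STING R232 plus an ISRE/ISG54-driven luciferase reporter, 5×10^5 per well, stimulated with compounds for 20 h. Secreted luciferase in supernatant measured by luminescence; […].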

T1 sequence (Q86WV6 whole entry H232R): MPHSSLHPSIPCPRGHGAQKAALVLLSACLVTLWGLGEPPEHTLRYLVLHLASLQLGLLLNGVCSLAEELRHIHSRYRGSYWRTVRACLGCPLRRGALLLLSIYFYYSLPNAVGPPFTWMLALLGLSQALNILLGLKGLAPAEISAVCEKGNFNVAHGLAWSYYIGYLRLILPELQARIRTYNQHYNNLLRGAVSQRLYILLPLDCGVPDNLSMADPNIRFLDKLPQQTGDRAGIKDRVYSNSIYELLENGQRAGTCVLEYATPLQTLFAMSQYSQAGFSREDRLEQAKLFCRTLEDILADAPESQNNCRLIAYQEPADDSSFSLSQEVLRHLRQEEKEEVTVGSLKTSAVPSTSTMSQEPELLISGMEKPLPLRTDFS

EC50 [µM]	SMILES
> 10	O=C(NCc1coc2ccccc12)c1ccc2c(c1)N(Cc1ccccc1)C(=O)CS2 [Example 70, N-(benzofuran-3-ylmethyl)-4-benzyl-3-oxo-3,4-dihydro-2H-benzo[b-1,4]thiazine-6-carboxamide]
> 10	O=C(NCc1ccco1)c1ccc2c(c1)N(CCc1ccccc1)C(=O)CS2 [Example 8, N-(furan-2-ylmethyl)-3-oxo-4-phenethyl-3,4-dihydro-2H-benzo[b-1,4]thiazine-6-carboxamide]
> 10	O=C(NCc1ccco1)c1cnc2c(c1)N(Cc1c(F)cccc1Cl)C(=O)CS2 [Example 177, 1-(2-Chloro-6-fluorobenzyl)-N-(furan-2-ylmethyl)-2-oxo-2,3-dihydro-1H-pyrido[2,3-b-1,4]thiazine-7-carboxamide]
> 10	Cc1ccc(CN2CCC(CNC(=O)c3ccc4c(c3)N(Cc3c(F)cccc3Cl)C(=O)CS4)CC2)cc1 [Example 128, 4-(2-chloro-6-fluorobenzyl)-N-((1-(4-methylbenzyl)piperidin-4-yl)methyl)-3-oxo-3,4-dihydro-2H-benzo[b][1,4]thiazine-6-carboxamide]
> 10	Cc1nc(CNC(=O)c2ccc3c(c2)N(Cc2ccccc2)C(=O)CS3)cs1 [Example 77, 4-benzyl-N-((2-methylthiazol-4-yl)methyl)-3-oxo-3,4-dihydro-2H-benzo[b-1,4]thiazine-6-carboxamide]
> 10	O=C(NCc1ccco1)c1ccc2c(c1)N(CCc1ccccc1Cl)C(=O)CS2 [Example 89, 4-(2-chlorophenethyl)-N-(furan-2-ylmethyl)-3-oxo-3,4-dihydro-2H-benzo[b-1,4]thiazine-6-carboxamide]
1 to 10	O=C(NCc1ccco1)c1ccc2c(c1)N(Cc1cc(Cl)cc(C(F)(F)F)c1)C(=O)CS2 [Example 102, 4-(3-chloro-5-(trifluoromethyl)benzyl)-N-(furan-2-ylmethyl)-3-oxo-3,4-dihydro-2H-benzo[b-1,4]thiazine-6-carboxamide]
> 10	O=C(NCc1ccccn1)c1ccc2c(c1)N(Cc1c(F)cccc1Cl)C(=O)CS2 [Example 108, 4-(2-chloro-6-fluorobenzyl)-3-oxo-N-(pyridin-2-ylmethyl)-3,4-dihydro-2H-benzo[b-1,4]thiazine-6-carboxamide]
1 to 10	O=C(NCc1cccc(F)c1)c1ccc2c(c1)N(Cc1c(F)cccc1Cl)C(=O)CS2 [Example 38, 4-(2-chloro-6-fluorobenzyl)-N-(3-fluorobenzyl)-3-oxo-3,4-dihydro-2H-benzo[b-1,4]thiazine-6-carboxamide]
> 10	Cc1cccc(CNC(=O)c2ccc3c(c2)N(Cc2ccccc2)C(=O)CS3)c1 [Example 76, 4-benzyl-N-(3-methylbenzyl)-3-oxo-3,4-dihydro-2H-benzo[b-1,4]thiazine-6-carboxamide]
> 10	Cc1csc(CNC(=O)c2ccc3c(c2)N(Cc2ccccc2)C(=O)CS3)n1 [Example 65, 4-benzyl-N-((4-methylthiazol-2-yl)methyl)-3-oxo-3,4-dihydro-2H-benzo[b-1,4]thiazine-6-carboxamide]
> 10	O=C(CN1C(=O)CSc2ccc(C(=O)NCc3ccco3)cc21)c1ccccc1 [Example 2, N-(furan-2-ylmethyl)-3-oxo-4-(2-oxo-2-phenylethyl)-3,4-dihydro-2H-benzo[b][1,4] thiazine-6-carboxamide]
> 10	O=C(NCC1CCN(Cc2ccccc2)CC1)c1ccc2c(c1)N(Cc1c(F)cccc1Cl)C(=O)CS2 [Example 48, N-((1-benzylpiperidin-4-yl)methyl)-4-(2-chloro-6-fluorobenzyl)-3-oxo-3,4-dihydro-2H-benzo[b][1,4] thiazine-6-carboxamide]

Second part, the compound before the results:

SMILES	EC50 [µM]
CC1CN(C(=O)Cc2ccccc2)c2cc(C(=O)NCc3c(F)cc(F)cc3F)ccc2S1 (stereo not shown) [Example 259, 2-methyl-4-(2-phenylacetyl)-N-(2,4,6-trifluorobenzyl)-3,4-dihydro-2H-benzo[b][1,4]thiazine-6-carboxamide]	> 10
O=C(NCc1c(F)cc(F)cc1F)c1ccc2c(c1)N(Cc1c(F)cc(O)cc1F)C(=O)CS2 [Example 115, 4-(2,6-difluoro-4-hydroxybenzyl)-3-oxo-N-(2,4,6-trifluorobenzyl)-3,4-dihydro-2H-benzo[b][1,4] thiazine-6-carboxamide]	< 1
O=C(NCC1CCCCC1)c1ccc2c(c1)N(C(=O)c1c(F)cccc1Cl)CCS2 [Example 257, 4-(2-chloro-6-fluorobenzoyl)-N-(cyclohexylmethyl)-3,4-dihydro-2H-benzo[b][1,4]thiazine-6-carboxamide]	1 to 10
C[C@@H](NC(=O)c1ccc2c(c1)N(Cc1ccccc1F)C(=O)CS2)C1CCCCC1 [Example 19, (R)-N-(1-cyclohexyl-ethyl)-4-(2-flurobenzyl)-3-oxo-3,4-dihydro-2H-benzo[b-1,4]thiazine-6-carboxamide]	> 10
O=C(NCc1ccco1)c1ccc2c(c1)N(C(=O)c1c(F)cccc1Cl)CCS2 [Example 256, 4-(2-chloro-6-fluorobenzoyl)-N-(furan-2-ylmethyl)-3,4-dihydro-2H-benzo[b][1,4]thiazine-6-carboxamide]	> 10
Cc1cc2c(cc1C(=O)NCc1ccco1)N(Cc1ccccc1)C(=O)CS2 [Example 230, 4-Benzyl-N-(furan-2-ylmethyl)-7-methyl-3-oxo-3,4-dihydro-2H-benzo[b-1,4]thiazine-6-carboxamide]	> 10
O=C(NCc1cc2ncccc2o1)c1ccc2c(c1)N(Cc1cc(F)cc(F)c1)C(=O)CC2 [Example 275, 1-(3,5-difluorobenzyl)-N-(furo[3,2-b]pyridin-2-ylmethyl)-2-oxo-1,2,3,4-tetrahydroquinoline-7-carboxamide]	> 10
O=C(NCc1ccco1)c1ccc2c(c1)N(CCS(=O)(=O)c1ccccc1)C(=O)CS2 [Example 103, N-(furan-2-ylmethyl)-3-oxo-4-(2-(phenylsulfonyl)ethyl)-3,4-dihydro-2H-benzo[b-1,4]thiazine-6-carboxamide]	> 10
NC(=O)c1cc(C(=O)NCc2c(F)cc(F)cc2F)cc2c1SCC(=O)N2Cc1ccc(F)cc1 [Example 225, 4-(4-fluorobenzyl)-3-oxo-N6-(2,4,6-trifluorobenzyl)-3,4-dihydro-2H-benzo[b][1,4] thiazine-6,8-dicarboxamide]	> 10
Cc1cccc(CN2C(=O)CSc3ccc(C(=O)NCC4CCCCC4)cc32)c1C [Example 25, N-(cyclohexyl-methyl)-4-(2,3-dimethyl-benzyl)-3-oxo-3,4-dihydro-2H-benzo[b-1,4]thiazine-6-carboxamide]	> 10
Cc1cnc(CNC(=O)c2ccc3c(c2)N(Cc2cc(F)cc(F)c2)C(=O)C(C)S3)o1 (stereo not shown) [Example 163, 4-(3,5-difluorobenzyl)-2-methyl-N-((5-methyloxazol-2-yl)methyl)-3-oxo-3,4-dihydro-2H-benzo[b][1,4] thiazine-6-carboxamide]	1 to 10
O=C(NCc1ccco1)c1ccc2c(c1)N(Cc1cn3ccsc3n1)C(=O)CS2 [Example 104, N-(furan-2-ylmethyl)-4-(imidazo[2,1-b]thiazol-6-ylmethyl)-3-oxo-3,4-dihydro-2H-benzo[b-1,4]thiazine-6-carboxamide]	> 10
O=C(NCc1ccco1)c1ccc2c(c1)N(C(=O)c1ccccc1F)CCS2 [Example 253, 4-(2-Fluorobenzoyl)-N-(furan-2-ylmethyl)-3,4-dihydro-2H-benzo[b-1,4]thiazine-6-carboxamide]	> 10
O=C(NCc1c(F)cc(F)cc1F)c1ccc2c(c1)N(S(=O)(=O)c1cc(F)cc(F)c1)CCS2 [Example 262, 4-((1,5-Difluorophenyl)sulfonyl)-N-(2,4,6-trifluorobenzyl)-3,4-dihydro-2H-benzo[b-1,4]thiazine-6-carboxamide]	> 10
O=C(CN1C(=O)CSc2ccc(C(=O)NCc3ccco3)cc21)Nc1ccncc1 [Example 4, N-(furan-2-ylmethyl)-3-oxo-4-(2-oxo-2-(pyridin-4-ylamino)ethyl)-3,4-dihydro-2H-benzo[b-1,4]-thiazine-6-carboxamide]	> 10
CC1Sc2ncc(C(=O)NCc3ccn(C)n3)cc2N(Cc2cc(F)cc(F)c2)C1=O (stereo not shown) [Example 215, 1-(3,5-difluorobenzyl)-3-methyl-N-((1-methyl-1H-pyrazol-3-yl)methyl)-2-oxo-2,3-dihydro-1H-pyrido[2,3-b][1,4]thiazine-7-carboxamide]	> 10
O=C(NCC1CCCCC1)c1ccc2c(c1)N(Cc1ccccc1F)C(=O)CS2 [Example 16, N-(cyclo-hexylmethyl)-4-(2-fluoro-benzyl)-3-oxo-3,4-dihydro-2H-benzo[b-1,4]thiazine-6-carboxamide]	1 to 10
NCCC1Sc2ccc(C(=O)NCc3ccc(F)cc3F)cc2N(Cc2cc(F)cc(F)c2)C1=O (stereo not shown) [Example 166, 2-(2-aminoethyl)-N-(2,4-difluorobenzyl)-4-(3,5-difluorobenzyl)-3-oxo-3,4-dihydro-2H-benzo[b] [1,4]thiazine-6-carboxamide]	> 10
COc1cc(CN2C(=O)C(C)Sc3ncc(C(=O)NCc4c(F)cc(F)cc4F)cc32)ccn1 (stereo not shown) [Example 206, 1-((2-methoxypyridin-4-yl)methyl)-3-methyl-2-oxo-N-(2,4,6-trifluorobenzyl)-2,3-dihydro-1H-pyrido[2,3-b][1,4] thiazine-7-carboxamide]	1 to 10
CC1(CO)Sc2ncc(C(=O)NCc3c(F)cc(F)cc3F)cc2N(Cc2cc(F)cc(F)c2)C1=O (stereo not shown) [Example 211, 1-(3,5-difluorobenzyl)-3-(hydroxymethyl)-3-methyl-2-oxo-N-(2,4,6-trifluorobenzyl)-2,3-dihydro-1H-pyrido [2,3-b] [1,4]thiazine-7-carboxamide]	> 10
O=C(NCc1ccco1)c1ccc2c(c1)N(Cc1ccccc1)CCS2(=O)=O [Example 252, 4-Benzyl-N-(furan-2-ylmethyl)-3,4-dihydro-2H-benzo[b-1,4]thiazine-6-carboxamide 1,1-dioxide]	> 10

Reference: patent US20200138827A1, “SMALL MOLECULE MODULATORS OF HUMAN STING” (Curadev Pharma Limited, priority 2017, published 2020)
